# Assay results published in the Kinase Knowledgebase extract (Sharma et al. 2016).
# pIC50: −log10 of the molar value.
# Target: EGFR, P00533 [L858R]
# Sequence (P00533 whole entry L858R, looked up): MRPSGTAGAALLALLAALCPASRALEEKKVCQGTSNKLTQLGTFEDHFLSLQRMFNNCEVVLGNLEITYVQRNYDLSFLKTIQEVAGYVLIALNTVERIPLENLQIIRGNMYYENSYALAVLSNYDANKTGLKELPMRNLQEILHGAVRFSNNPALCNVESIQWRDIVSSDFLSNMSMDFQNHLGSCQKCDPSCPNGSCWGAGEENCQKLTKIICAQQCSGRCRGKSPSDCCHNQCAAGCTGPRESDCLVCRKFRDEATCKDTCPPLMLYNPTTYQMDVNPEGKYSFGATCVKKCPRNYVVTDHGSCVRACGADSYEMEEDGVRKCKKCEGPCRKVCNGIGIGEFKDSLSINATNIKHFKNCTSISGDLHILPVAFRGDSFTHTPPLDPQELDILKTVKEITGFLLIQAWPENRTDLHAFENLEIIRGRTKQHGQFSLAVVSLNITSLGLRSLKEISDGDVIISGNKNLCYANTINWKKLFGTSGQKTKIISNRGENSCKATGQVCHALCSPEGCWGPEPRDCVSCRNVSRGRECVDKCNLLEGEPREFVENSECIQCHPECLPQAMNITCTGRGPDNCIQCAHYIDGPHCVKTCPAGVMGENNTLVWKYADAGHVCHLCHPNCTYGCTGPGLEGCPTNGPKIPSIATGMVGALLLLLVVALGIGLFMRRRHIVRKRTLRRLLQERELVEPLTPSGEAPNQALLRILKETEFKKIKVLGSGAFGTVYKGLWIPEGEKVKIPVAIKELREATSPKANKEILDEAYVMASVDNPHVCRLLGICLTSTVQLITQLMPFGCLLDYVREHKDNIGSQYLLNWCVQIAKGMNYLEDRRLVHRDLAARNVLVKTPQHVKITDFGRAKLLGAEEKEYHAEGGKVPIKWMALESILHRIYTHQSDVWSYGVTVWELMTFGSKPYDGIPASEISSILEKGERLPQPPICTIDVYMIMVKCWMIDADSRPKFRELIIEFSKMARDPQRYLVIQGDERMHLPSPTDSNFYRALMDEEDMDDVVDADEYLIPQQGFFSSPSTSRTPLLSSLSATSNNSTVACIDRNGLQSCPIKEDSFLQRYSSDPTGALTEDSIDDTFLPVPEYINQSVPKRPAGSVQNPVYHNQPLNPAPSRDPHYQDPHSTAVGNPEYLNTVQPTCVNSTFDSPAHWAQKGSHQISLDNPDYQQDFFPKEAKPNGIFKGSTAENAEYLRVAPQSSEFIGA
row,pIC50,Structure (SMILES)
1,7.20,O=C(Nc1cccc(Nc2cc(Nc3cccc(C(F)(F)F)c3)ncn2)c1)C1CC1

# Target: EGFR, P00533 [L861Q]
# Sequence (P00533 whole entry L861Q, looked up): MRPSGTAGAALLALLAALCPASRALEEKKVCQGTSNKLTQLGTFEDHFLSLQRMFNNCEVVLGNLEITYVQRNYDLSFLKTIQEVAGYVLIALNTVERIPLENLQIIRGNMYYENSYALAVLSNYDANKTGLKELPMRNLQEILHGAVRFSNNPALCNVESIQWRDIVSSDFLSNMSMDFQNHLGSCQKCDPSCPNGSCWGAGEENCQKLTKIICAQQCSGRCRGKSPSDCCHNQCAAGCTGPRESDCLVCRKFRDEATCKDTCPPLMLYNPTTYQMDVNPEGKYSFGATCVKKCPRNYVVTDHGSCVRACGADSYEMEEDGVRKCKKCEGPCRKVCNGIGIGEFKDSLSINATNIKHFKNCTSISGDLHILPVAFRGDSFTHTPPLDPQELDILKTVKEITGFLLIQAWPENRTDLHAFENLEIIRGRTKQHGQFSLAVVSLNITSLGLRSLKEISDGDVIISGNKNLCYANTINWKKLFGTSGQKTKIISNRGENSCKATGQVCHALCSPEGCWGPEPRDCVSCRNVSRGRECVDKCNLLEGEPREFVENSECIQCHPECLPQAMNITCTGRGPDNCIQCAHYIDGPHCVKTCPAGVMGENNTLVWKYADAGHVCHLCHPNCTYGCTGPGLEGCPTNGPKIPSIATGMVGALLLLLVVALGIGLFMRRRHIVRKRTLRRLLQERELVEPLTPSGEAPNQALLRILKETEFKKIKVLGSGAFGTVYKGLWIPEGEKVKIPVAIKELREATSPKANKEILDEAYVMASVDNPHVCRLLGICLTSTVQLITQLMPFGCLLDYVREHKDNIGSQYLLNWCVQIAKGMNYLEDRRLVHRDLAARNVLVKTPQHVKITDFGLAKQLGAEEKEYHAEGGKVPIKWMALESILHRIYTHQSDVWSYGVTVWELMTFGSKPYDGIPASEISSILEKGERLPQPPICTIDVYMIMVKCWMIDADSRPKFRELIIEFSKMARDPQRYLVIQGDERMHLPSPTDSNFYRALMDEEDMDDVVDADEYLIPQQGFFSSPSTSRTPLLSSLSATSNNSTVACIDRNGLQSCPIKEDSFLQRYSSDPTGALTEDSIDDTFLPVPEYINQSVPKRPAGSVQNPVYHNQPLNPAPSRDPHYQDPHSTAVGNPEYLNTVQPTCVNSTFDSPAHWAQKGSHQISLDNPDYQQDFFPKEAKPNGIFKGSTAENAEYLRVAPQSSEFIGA
row,pIC50,Structure (SMILES)
1,8.40,O=C(Nc1cccc(Nc2cc(Nc3cccc(C(F)(F)F)c3)ncn2)c1)C1CC1

# Target: EGFR (UniProt P00533)
# Sequence (P00533 whole entry, looked up): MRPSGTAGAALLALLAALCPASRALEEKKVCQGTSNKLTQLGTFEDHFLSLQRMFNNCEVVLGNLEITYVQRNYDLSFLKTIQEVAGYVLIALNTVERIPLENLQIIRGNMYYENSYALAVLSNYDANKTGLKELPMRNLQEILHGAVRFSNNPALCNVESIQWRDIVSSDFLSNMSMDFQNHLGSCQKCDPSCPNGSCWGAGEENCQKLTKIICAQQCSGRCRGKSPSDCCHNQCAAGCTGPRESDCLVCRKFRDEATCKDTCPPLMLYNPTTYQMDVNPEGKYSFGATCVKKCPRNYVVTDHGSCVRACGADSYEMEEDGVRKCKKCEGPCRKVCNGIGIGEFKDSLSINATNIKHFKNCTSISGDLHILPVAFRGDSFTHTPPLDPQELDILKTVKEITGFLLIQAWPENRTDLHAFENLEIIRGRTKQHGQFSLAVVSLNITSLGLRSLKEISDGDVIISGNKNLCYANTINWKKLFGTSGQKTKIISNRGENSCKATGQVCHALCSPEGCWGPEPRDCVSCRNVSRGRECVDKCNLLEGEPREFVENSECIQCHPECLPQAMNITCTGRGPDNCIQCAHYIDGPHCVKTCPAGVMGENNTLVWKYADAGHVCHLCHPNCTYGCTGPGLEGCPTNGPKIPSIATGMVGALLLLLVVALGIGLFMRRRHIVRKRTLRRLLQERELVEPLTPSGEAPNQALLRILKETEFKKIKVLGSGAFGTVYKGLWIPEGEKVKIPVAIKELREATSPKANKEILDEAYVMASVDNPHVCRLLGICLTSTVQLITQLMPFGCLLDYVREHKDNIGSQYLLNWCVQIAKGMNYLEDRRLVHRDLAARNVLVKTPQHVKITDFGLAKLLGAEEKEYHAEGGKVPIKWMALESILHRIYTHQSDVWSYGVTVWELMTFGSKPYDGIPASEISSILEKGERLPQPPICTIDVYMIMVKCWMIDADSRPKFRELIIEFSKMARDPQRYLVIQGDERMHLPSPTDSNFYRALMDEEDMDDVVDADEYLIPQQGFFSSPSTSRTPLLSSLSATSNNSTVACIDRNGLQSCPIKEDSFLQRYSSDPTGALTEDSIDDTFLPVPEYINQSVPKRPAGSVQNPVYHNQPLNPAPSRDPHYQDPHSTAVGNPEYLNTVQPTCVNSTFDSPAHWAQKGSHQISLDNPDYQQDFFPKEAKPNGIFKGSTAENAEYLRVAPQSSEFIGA
row,Structure (SMILES),pIC50
1,O=C(Nc1cccc(Nc2cc(NCc3ccc(C(F)(F)F)cc3)ncn2)c1)C1CC1,5.75
2,FC(F)(F)c1cccc(Nc2ccnc(Nc3cccc(C(F)(F)F)c3)c2)c1,< 5.00
3,O=C(Nc1cccc(Nc2cc(Oc3cccc(C(F)(F)F)c3)ncn2)c1)C1CC1,7.85
4,COc1ccc(Nc2cc(Nc3cccc(C(F)(F)F)c3)ncn2)cc1NC(=O)C1CC1,6.92
5,Cc1ccccc1Nc1cc(Nc2cccc(NC(=O)C3CC3)c2)ncn1,8.15
6,CN(c1cccc(NC(=O)C2CC2)c1)c1cc(Nc2cccc(C(F)(F)F)c2)ncn1,< 5.00
7,O=C(Nc1cccc(Nc2cc(Nc3cccc(C(F)(F)F)c3)ncn2)c1)C1CC1,7.68
8,CN(c1cccc(C(F)(F)F)c1)c1cc(Nc2cccc(NC(=O)C3CC3)c2)ncn1,7.72
9,FC(F)(F)c1cccc(Oc2cc(Oc3cccc(C(F)(F)F)c3)ncn2)c1,< 5.00
10,O=C(Nc1cccc(Nc2nccc(Nc3cccc(C(F)(F)F)c3)n2)c1)C1CC1,< 5.00
11,O=C(Nc1cccc(Nc2ccnc(Nc3cccc(C(F)(F)F)c3)n2)c1)C1CC1,< 5.00

# Further lines, results first:
row,pIC50,Structure (SMILES)
1,5.44,COc1ccc(Nc2cc(Nc3cccc(C(F)(F)F)c3)ncn2)cc1NC(=O)C1CCCCC1
2,< 5.00,COc1ccc(OC)c(-c2cc(Nc3cccc(NC(=O)C4CC4)c3)ncn2)c1
3,< 5.00,COc1ccc(Cl)cc1-c1cc(Nc2cccc(NC(=O)C3CC3)c2)ncn1
4,7.46,O=C(Nc1cccc(Nc2cc(Nc3ccccc3Cl)ncn2)c1)C1CC1
5,7.49,FC(F)(F)c1cccc(Nc2cc(Nc3cccc(C(F)(F)F)c3)ncn2)c1
